Measurements: the NIST ThermoML archive (doi:10.1021/je060271a)
Numbers after ± are expanded uncertainties.

Details: 283.15 K, Liquid, Vibrating tube method

CCCCC(=O)OCC(COC(=O)CCCC)(COC(=O)CCCC)COC(=O)CCCC [pentaerythritol tetrapentanoate]
Details	mass density [kg/m3]
5629.7 kPa	1030.4 ± 1.2
5659.1 kPa	1030.3 ± 1.2
5688.1 kPa	1030.4 ± 1.2
5723.9 kPa	1030.4 ± 1.2
5754.6 kPa	1030.5 ± 1.2
5779.1 kPa	1030.6 ± 1.2
5803 kPa	1030.5 ± 1.2
5832 kPa	1030.5 ± 1.2
5856.1 kPa	1030.5 ± 1.2
5881 kPa	1030.5 ± 1.2
5906.4 kPa	1030.5 ± 1.2
5936.8 kPa	1030.5 ± 1.2
5961.9 kPa	1030.6 ± 1.2
5987.7 kPa	1030.6 ± 1.2
6018.4 kPa	1030.5 ± 1.2
6044.4 kPa	1030.6 ± 1.2
6070.3 kPa	1030.6 ± 1.2
6097.3 kPa	1030.6 ± 1.2
6128.9 kPa	1030.6 ± 1.2
6155.9 kPa	1030.8 ± 1.2
6188.9 kPa	1030.7 ± 1.2
6217.1 kPa	1030.7 ± 1.2
6245.2 kPa	1030.6 ± 1.2
6273.6 kPa	1030.7 ± 1.2
6301.9 kPa	1030.7 ± 1.2
6336.3 kPa	1030.8 ± 1.2
6365.5 kPa	1030.8 ± 1.2
6395.6 kPa	1030.8 ± 1.2
6431.7 kPa	1030.9 ± 1.2
6462.7 kPa	1030.8 ± 1.2
6491.7 kPa	1030.9 ± 1.2
6519.4 kPa	1030.9 ± 1.2
6542.3 kPa	1030.9 ± 1.2
6565.5 kPa	1031 ± 1.2
6593.5 kPa	1031.1 ± 1.2
6616.8 kPa	1031 ± 1.2
6640.3 kPa	1031 ± 1.2
6668.5 kPa	1031 ± 1.2
6692.7 kPa	1031 ± 1.2
6717.5 kPa	1031.1 ± 1.2
6741.9 kPa	1031 ± 1.2
6771.1 kPa	1031.1 ± 1.2
6796.3 kPa	1031.1 ± 1.2
6820.7 kPa	1031 ± 1.2
6850.6 kPa	1031 ± 1.2
6876.8 kPa	1031.1 ± 1.2
6902.9 kPa	1031.1 ± 1.2
6929.7 kPa	1031.2 ± 1.2
6961.3 kPa	1031.2 ± 1.2
6989.3 kPa	1031.2 ± 1.2
7017.1 kPa	1031.2 ± 1.2
7043.5 kPa	1031.2 ± 1.2
7061.5 kPa	1031.2 ± 1.2
7079.3 kPa	1031.1 ± 1.2
7097.4 kPa	1031.2 ± 1.2
7118.7 kPa	1031.2 ± 1.2
7234.2 kPa	1031.4 ± 1.2
7256.3 kPa	1031.3 ± 1.2
7276 kPa	1031.3 ± 1.2
7295 kPa	1031.3 ± 1.2
7315.5 kPa	1031.4 ± 1.2
7334.8 kPa	1031.4 ± 1.2
7354.5 kPa	1031.4 ± 1.2
7377.5 kPa	1031.5 ± 1.2
7396.8 kPa	1031.4 ± 1.2
7420.6 kPa	1031.4 ± 1.2
7440.5 kPa	1031.5 ± 1.2
7460.5 kPa	1031.4 ± 1.2
7480.2 kPa	1031.4 ± 1.2
7504.4 kPa	1031.5 ± 1.2
7525.1 kPa	1031.4 ± 1.2
7592.3 kPa	1031.6 ± 1.2
7634.1 kPa	1031.5 ± 1.2
7655.5 kPa	1031.6 ± 1.2
7680.7 kPa	1031.4 ± 1.2
7702.1 kPa	1031.7 ± 1.2
7723.5 kPa	1031.5 ± 1.2
7745.1 kPa	1031.6 ± 1.2
7771 kPa	1031.6 ± 1.2
7792.7 kPa	1031.7 ± 1.2
7814.7 kPa	1031.6 ± 1.2
7836.8 kPa	1031.7 ± 1.2
7863.9 kPa	1031.6 ± 1.2
7886.1 kPa	1031.7 ± 1.2
7909.2 kPa	1031.7 ± 1.2
8005.6 kPa	1031.7 ± 1.2
8079.8 kPa	1031.9 ± 1.2
8132.6 kPa	1031.8 ± 1.2
8156.2 kPa	1031.8 ± 1.2
8209.7 kPa	1031.8 ± 1.2
8234 kPa	1031.8 ± 1.2
8258.7 kPa	1031.9 ± 1.2
8283.5 kPa	1031.9 ± 1.2
8312.9 kPa	1031.9 ± 1.2
8337.9 kPa	1031.8 ± 1.2
8363.2 kPa	1031.9 ± 1.2
8393.6 kPa	1032 ± 1.2
8418.8 kPa	1032.2 ± 1.2
8444.3 kPa	1031.9 ± 1.2
8474.7 kPa	1032 ± 1.2
8501.2 kPa	1032.1 ± 1.2
8527.8 kPa	1032 ± 1.2
8554.5 kPa	1032 ± 1.2
8586.3 kPa	1032.1 ± 1.2
8612.5 kPa	1032 ± 1.2
8644.9 kPa	1032.2 ± 1.2
8671.8 kPa	1032.2 ± 1.2
8698.7 kPa	1032.2 ± 1.2
8726 kPa	1032.1 ± 1.2
8759.1 kPa	1032 ± 1.2
8787 kPa	1032.2 ± 1.2
8815 kPa	1032.2 ± 1.2
8848.6 kPa	1032.3 ± 1.2
8877 kPa	1032.2 ± 1.2
8906.3 kPa	1032.3 ± 1.2
8934.4 kPa	1032.3 ± 1.2
8969.3 kPa	1032.3 ± 1.2
8998.4 kPa	1032.4 ± 1.2
9027.7 kPa	1032.3 ± 1.2
9092.4 kPa	1032.4 ± 1.2
9158.9 kPa	1032.3 ± 1.2
9189.8 kPa	1032.4 ± 1.2
9220.8 kPa	1032.6 ± 1.2
9257.3 kPa	1032.5 ± 1.2
9288.4 kPa	1032.5 ± 1.2
9320.3 kPa	1032.4 ± 1.2
9599.3 kPa	1032.6 ± 1.2
9632.7 kPa	1032.7 ± 1.2
9666.3 kPa	1032.8 ± 1.2
9707.5 kPa	1032.7 ± 1.2
9743 kPa	1032.7 ± 1.2
9779.3 kPa	1032.7 ± 1.2
9813.6 kPa	1032.9 ± 1.2
9848.6 kPa	1032.9 ± 1.2
9891.1 kPa	1032.8 ± 1.2
9926.8 kPa	1032.8 ± 1.2
9963 kPa	1032.8 ± 1.2
10006 kPa	1032.8 ± 1.2
10044 kPa	1032.9 ± 1.2
10125 kPa	1032.9 ± 1.2
10200 kPa	1033.1 ± 1.2
10248 kPa	1033 ± 1.2
10286 kPa	1033 ± 1.2
10324 kPa	1033.1 ± 1.2
10363 kPa	1033 ± 1.2
10410 kPa	1033.1 ± 1.2
10449 kPa	1033.2 ± 1.2
10489 kPa	1033.1 ± 1.2
10537 kPa	1033.2 ± 1.2
10577 kPa	1033.2 ± 1.2
10619 kPa	1033.3 ± 1.2
10668 kPa	1033.3 ± 1.2
10710 kPa	1033.4 ± 1.2
10753 kPa	1033.3 ± 1.2
10805 kPa	1033.3 ± 1.2
10848 kPa	1033.4 ± 1.2
10894 kPa	1033.3 ± 1.2
10948 kPa	1033.3 ± 1.2
10990 kPa	1033.4 ± 1.2
11025 kPa	1033.4 ± 1.2
